Reference: patent US20230234941A1, “Salts of Compound and Pharmaceutical Compositions Containing the Same” (Shenzhen Forward Pharmaceuticals Co., Limited., priority 2020, published 2023)
Structures can show the parent of a compound that is named as a salt. Where two headings read alike, the source gives them in different places.

Tests used:
Type in all cases: physicochemical
[1] = Chemical and physical stability of the salts at the end of the preparation
From the text: It is crucial for drug development whether the salts obtained as above have chemical and physical stability at the end of the preparation. The chemical and physical stability of the salts at the end of the preparation includes: […]

[2] = Solid storage stability test; settings: for Original morphology / Original purity: original solid before storage; for chemical and physical stability after storage (summary): solid/25° C./60% RH/open/1 week and/or solid/60° C./closed container/1 week
Description: Each amorphous salt solid was weighed (two 2 mg samples were weighed for purity testing after solid storage stability study, and one 10 mg sample was weighed for XRPD testing after solid storage stability study) and placed in a glass vial. In a 25° C./60% RH solid storage stability test, the amorphous salt solid was placed in a 25° C./60% RH constant temperature and humidity chamber, and placed in the dark for 1 week (i.e. “solid/25° C./60% RH/open/1 week”), and in a 60° C. solid storage stability test, the amorphous salt solid was sealed in an oven at 60° C. and heated for 1 week in the dark (i.e. “solid/60° C./closed container/l week”). Then the sample was taken out for purity testing, crystal form detection and appearance observation, respectively.

[3] = Solid solubility test (2 h and 24 h); settings: for Solubility measured at 2 h: 37° C., based on free base; for XRPD measured at 2 h: state of sample / solid fraction
Description: samples were weighed for each amorphous salt solid (equivalent to 20 mg of free base), and 10 mL of the following solvents were respectively added: 0.1N HCl solution (pH 1.0), 50 mM phosphate buffer (pH 4.5), FeSSIF-V1 (pH 5.0), FaSSIF-V1 (pH 6.5) and SGF (pH 2.0), […] The suspension was then centrifuged at 37° C., the supernatant was measured for solubility by HPLC, and the solid fraction was measured for XRPD. The target solubility was at least 2 mg (based on free base)/mL.

[4] = Test BS1: solid/25° C./60% RH/open/1 week
[5] = listed as amorphous 1 eq. esylate salt
[6] = solid/60° C./closed container/1 week (Test BS1)
[7] = FaSSIF-V1 (pH 6.5) (Test ES4, partly printed ES1)
[8] = Test ES1: 0.1N HCl solution (pH 1.0)
[9] = Test ES2: 50 mM phosphate buffer (pH 4.5)
[10] = listed as amorphous 2 eq. mesylate salt
[11] = listed as amorphous 1 eq. besylate salt

## C=CC(=O)Nc1cc(Nc2ncnc(-c3cn(C)c4ccccc34)n2)c(OC)cc1N(C)CCN(C)C [Example 11]
[1]; listed as amorphous nitrate salt
  chemical and physical stability at the end of the preparation: at least chemically unstable
[1]; listed as nitrate salt
  chemical and physical stability at the end of the preparation: chemically unstable

## C=CC(=O)Nc1cc(Nc2ncnc(-c3cn(C)c4ccccc34)n2)c(OC)cc1N(C)CCN(C)C [Example 8]
[2]; [4]
  Purity: 99.9%
[2]
  Original morphology: amorphous
  Original purity: 99.8%
[2]; listed as 1 eq. esylate salt
  chemical and physical stability after storage (summary): physically unstable
[2]; [5]
  chemical and physical stability after storage (summary): physically unstable
[2]; solid/25° C./60% RH/open/1 week, listed as amorphous 1 eq. esylate salt
  physical and chemical stability under storage (in words): significant hygroscopicity (caking and fusion to a glassy state)
[2]; [6]
  Purity: 99.8%
[2]; solid/60° C./closed container/1 week, listed as amorphous 1 eq. esylate salt
  physical and chemical stability under storage (in words): good physical and chemical stability
[3]; [7]
  pH measured at 2 h: (6.4)
  Solubility measured at 2 h: >2000 µg/mL
  XRPD measured at 2 h: clear solution
[3]; [8]
  pH measured at 2 h: (0.8)
  Solubility measured at 2 h: >2000 µg/mL
  XRPD measured at 2 h: clear solution
[3]; [9]
  pH measured at 2 h: (4.4)
  Solubility measured at 2 h: >2000 µg/mL
  XRPD measured at 2 h: clear solution
[3]; Test ES3: FeSSIF-V1 (pH 5.0)
  pH measured at 2 h: (4.8)
  Solubility measured at 2 h: >2000 µg/mL
  XRPD measured at 2 h: clear solution
[3]; Test ES5: SGF (pH 2.0)
  pH measured at 2 h: (1.9)
  Solubility measured at 2 h: >2000 µg/mL
  XRPD measured at 2 h: clear solution
[1]; listed as 1 eq. esylate salt
  chemical and physical stability at the end of the preparation: chemically and physically stable
[1]; [5]
  chemical and physical stability at the end of the preparation: chemically and physically stable

## C=CC(=O)Nc1cc(Nc2ncnc(-c3cn(C)c4ccccc34)n2)c(OC)cc1N(C)CCN(C)C [Example 5]
[2]; [4]
  Purity: 99.9%
[2]
  Original morphology: amorphous
  Original purity: 99.9%
[2]; listed as 2 eq. mesylate salt
  chemical and physical stability after storage (summary): physically unstable
[2]; [10]
  chemical and physical stability after storage (summary): physically unstable
[2]; solid/25° C./60% RH/open/1 week, listed as amorphous 2 eq. mesylate salt
  physical and chemical stability under storage (in words): transformed from amorphous to a low crystallinity and showed a certain hygroscopicity (agglomeration)
[2]; [6]
  Purity: 99.8%
[2]; solid/60° C./closed container/1 week, listed as amorphous 2 eq. mesylate salt
  physical and chemical stability under storage (in words): a certain hygroscopicity (partial agglomeration)
[3]; [7]
  pH measured at 2 h: (6.2)
  Solubility measured at 2 h: >2000 µg/mL
  XRPD measured at 2 h: clear solution
[3]; [8]
  pH measured at 2 h: (0.7)
  Solubility measured at 2 h: >2000 µg/mL
  XRPD measured at 2 h: clear solution
[3]; [9]
  pH measured at 2 h: (4.2)
  Solubility measured at 2 h: >2000 µg/mL
  XRPD measured at 2 h: clear solution
[3]; Test ES3: FeSSIF-V1 (pH 5.0)
  pH measured at 2 h: (4.8)
  Solubility measured at 2 h: >2000 µg/mL
  XRPD measured at 2 h: clear solution
[3]; Test ES5: SGF (pH 2.0)
  pH measured at 2 h: (1.8)
  Solubility measured at 2 h: >2000 µg/mL
  XRPD measured at 2 h: clear solution
[1]; listed as 2 eq. mesylate salt
  chemical and physical stability at the end of the preparation: chemically and physically stable
[1]; [10]
  chemical and physical stability at the end of the preparation: chemically and physically stable

## C=CC(=O)Nc1cc(Nc2ncnc(-c3cn(C)c4ccccc34)n2)c(OC)cc1N(C)CCN(C)C [Example 13]
[1]; listed as 2 eq. p-tosylate salt
  chemical and physical stability at the end of the preparation: physically unstable
[1]; listed as amorphous 2 eq. p-tosylate salt
  chemical and physical stability at the end of the preparation: chemically stable and reasonable in terms of the base:acid stoichiometric ratio at the end of the preparation, but was physically unstable due to caking and fusion to a glassy state upon short exposure to environmental conditions

## C=CC(=O)Nc1cc(Nc2ncnc(-c3cn(C)c4ccccc34)n2)c(OC)cc1N(C)CCN(C)C [Example 12]
[1]; listed as amorphous sulfate salt
  chemical and physical stability at the end of the preparation: chemically stable at the end of the preparation, but was physically unstable due to a certain hygroscopicity
[1]; listed as sulfate salt
  chemical and physical stability at the end of the preparation: physically unstable

## C=CC(=O)Nc1cc(Nc2ncnc(-c3cn(C)c4ccccc34)n2)c(OC)cc1N(C)CCN(C)C [Example 6]
[2]; [4]
  Purity: 98.2%
[2]
  Original morphology: amorphous
  Original purity: 99.7%
[2]; solid/25° C./60% RH/open/1 week
  decrease in purity: about 2%
[2]; listed as 1 eq. besylate salt
  chemical and physical stability after storage (summary): chemically unstable
[2]; [11]
  chemical and physical stability after storage (summary): chemically unstable
[2]; [6]
  Purity: 99.6%
[2]; solid/60° C./closed container/1 week, listed as amorphous 1 eq. besylate salt
  physical and chemical stability under storage (in words): good physical and chemical stability
[3]; [7]
  pH measured at 2 h: (6.5)
  Solubility measured at 2 h: >2000 µg/mL
  XRPD measured at 2 h: clear solution
[3]; [8]
  pH measured at 2 h: (0.7)
  Solubility measured at 2 h: >2000 µg/mL
  XRPD measured at 2 h: clear solution
[3]; [9]
  pH measured at 2 h: (4.5)
  Solubility measured at 2 h: >2000 µg/mL
  XRPD measured at 2 h: clear solution
[3]; Test ES3: FeSSIF-V1 (pH 5.0)
  pH measured at 2 h: (4.8)
  Solubility measured at 2 h: >2000 µg/mL
  XRPD measured at 2 h: clear solution
[3]; Test ES5: SGF (pH 2.0)
  pH measured at 2 h: (2.1)
  Solubility measured at 2 h: >2000 µg/mL
  XRPD measured at 2 h: clear solution
[1]; listed as 1 eq. besylate salt
  chemical and physical stability at the end of the preparation: chemically and physically stable
[1]; [11]
  chemical and physical stability at the end of the preparation: chemically and physically stable

## C=CC(=O)Nc1cc(Nc2ncnc(-c3cn(C)c4ccccc34)n2)c(OC)cc1N(C)CCN(C)C [Example 16]
[1]; listed as L-malate salt
  chemical and physical stability at the end of the preparation: chemically unstable
[1]; listed as amorphous L-malate salt
  chemical and physical stability at the end of the preparation: at least chemically unstable

## C=CC(=O)Nc1cc(Nc2ncnc(-c3cn(C)c4ccccc34)n2)c(OC)cc1N(C)CCN(C)C [Example 18]
[1]; listed as 1 eq. L-tartrate
  chemical and physical stability at the end of the preparation: chemically unstable
[1]; listed as amorphous 1 eq. L-tartrate
  chemical and physical stability at the end of the preparation: chemically unstable
[1]; listed as amorphous 1 eq. L-tartrate salt
  chemical and physical stability at the end of the preparation: at least chemically unstable

## C=CC(=O)Nc1cc(Nc2ncnc(-c3cn(C)c4ccccc34)n2)c(OC)cc1N(C)CCN(C)C [Example 17]
[1]; listed as 1 eq. citrate salt
  chemical and physical stability at the end of the preparation: chemically unstable
[1]; listed as amorphous 1 eq. citrate salt
  chemical and physical stability at the end of the preparation: at least chemically unstable

## C=CC(=O)Nc1cc(Nc2ncnc(-c3cn(C)c4ccccc34)n2)c(OC)cc1N(C)CCN(C)C [Example 15]
[1]; listed as Y11526-25-FD12-1,4-dioxane
  chemical and physical stability at the end of the preparation: chemically and physically stable

## C=CC(=O)Nc1cc(Nc2ncnc(-c3cn(C)c4ccccc34)n2)c(OC)cc1N(C)CCN(C)C [sulfosalicylate salt]
[1]
  chemical and physical stability at the end of the preparation: chemically and physically stable
[1]; listed as amorphous sulfosalicylate salt
  chemical and physical stability at the end of the preparation: chemically and physically stable

## C=CC(=O)Nc1cc(Nc2ncnc(-c3cn(C)c4ccccc34)n2)c(OC)cc1N(C)CCN(C)C [Example 14]
[1]; listed as Y11526-25-FD13-1,4-dioxane
  chemical and physical stability at the end of the preparation: chemically and physically stable
